# Results published in patent publication US7709482B2, “Polycyclic heteroaryl substituted triazoles useful as Axl inhibitors” (Rigel Pharmaceuticals, Inc., priority 2006, dated 2010).
# Target: T1, Axl (Homo sapiens, UniProt P30530)
# T1 construct: endogenous in cells; host or cells: HeLa cells
# T1 sequence (P30530 26-894): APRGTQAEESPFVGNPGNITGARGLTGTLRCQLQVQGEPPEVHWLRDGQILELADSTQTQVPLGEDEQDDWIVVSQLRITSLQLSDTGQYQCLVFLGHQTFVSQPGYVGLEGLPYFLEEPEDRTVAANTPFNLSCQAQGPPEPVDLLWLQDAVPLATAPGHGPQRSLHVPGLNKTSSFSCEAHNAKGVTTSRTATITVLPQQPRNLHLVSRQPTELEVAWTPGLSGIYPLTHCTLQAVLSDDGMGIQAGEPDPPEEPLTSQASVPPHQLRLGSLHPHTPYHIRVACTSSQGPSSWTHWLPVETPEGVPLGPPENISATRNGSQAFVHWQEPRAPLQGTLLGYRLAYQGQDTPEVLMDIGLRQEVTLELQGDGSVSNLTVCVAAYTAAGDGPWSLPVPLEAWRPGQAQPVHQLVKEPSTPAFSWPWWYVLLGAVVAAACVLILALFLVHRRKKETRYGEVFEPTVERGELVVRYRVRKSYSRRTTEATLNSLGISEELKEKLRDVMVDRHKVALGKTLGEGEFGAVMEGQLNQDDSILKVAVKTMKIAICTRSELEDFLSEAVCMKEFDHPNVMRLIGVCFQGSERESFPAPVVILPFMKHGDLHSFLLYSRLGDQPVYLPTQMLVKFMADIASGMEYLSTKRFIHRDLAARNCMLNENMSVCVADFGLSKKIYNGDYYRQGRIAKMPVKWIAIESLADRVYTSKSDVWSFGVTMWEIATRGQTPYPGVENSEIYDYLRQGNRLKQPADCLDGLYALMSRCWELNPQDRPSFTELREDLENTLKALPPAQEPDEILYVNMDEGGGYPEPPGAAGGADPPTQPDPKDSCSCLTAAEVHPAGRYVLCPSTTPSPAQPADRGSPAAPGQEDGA
# Experiment: Phospho-Akt In-Cell Western Assay (inhibition of Axl activity after Axl-antibody cross-linking)
# Assay type: cell-based
# Conditions: inhibition of Axl activity; Table 1, compounds of formula (Ia); read-out: IC50
# Summary of the method: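 HeLa cells on poly-L-lysine, starved 24 h in 0.5% FCS DMEM with Axl/Fc 500 ng/mL, pre-treated with compound 1 h at 37 °C, then stimulated 5 min by anti-Axl/anti-mouse antibody cross-linking. Fixed cells probed for phospho-Akt with HRP secondary and chemiluminescent detection.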
row,SMILES,IC50
1,"Nc1nc(Nc2ccc(N3CCN4CCCCC4C3)c(F)c2)nn1-c1cc2c(nn1)-c1ccccc1CCC2 (stereo not shown) [Compound 128, 1-(6,7-dihydro-5H-benzo[6,7]cyclohepta[1,2-c]pyridazin-3-yl)-N^3-(3-fluoro-4-(octahydro-1H-pyrido[1,2-a]pyrazin-2-yl)phenyl)-1H-1,2,4-triazole-3,5-diamine]",1 to 10 µM
2,"Nc1nc(Nc2ccc(N3CCN4CCCCC4C3)c(F)c2)nn1-c1cc2c(nn1)-c1ccccc1SCC2 (stereo not shown) [Compound 129, 1-(6,7-dihydro-5H-benzo[2,3]thiepino[4,5-c]pyridazin-3-yl)-N^3-(3-fluoro-4-(octahydro-1H-pyrido[1,2-a]pyrazin-2-yl)phenyl)-1H-1,2,4-triazole-3,5-diamine]",< 1 µM
3,"CCN(CC)CC1CCCN1c1ccc(Nc2nc(N)n(-c3cc4c(nn3)-c3ccccc3CCC4)n2)cn1 (stereo not shown) [Compound 130, 1-(6,7-dihydro-5H-benzo[6,7]cyclohepta[1,2-c]pyridazin-3-yl)-N^3-(6-(2-diethylaminomethyl)pyrrolidin-1-ylpyridin-3-yl)-1H-1,2,4-triazole-3,5-diamine]",1 to 10 µM
4,"CN(C)CCN1CCN(C(=O)c2cc3cc(Nc4nc(N)n(-c5cc6c(nn5)-c5ccccc5SCC6)n4)ccc3s2)CC1 [Compound 131, 1-(6,7-dihydro-5H-benzo[2,3]thiepino[4,5-c]pyridazin-3-yl)-N^3-(2-(1-(4-(2-(dimethylamino)ethyl)-piperazin-1-yl)oxomethyl)benzo[b]thio-phen-5-yl)-1H-1,2,4-triazole-3,5-diamine]",1 to 10 µM
5,"Nc1nc(Nc2ccc(N3CCC(N4CCCC4)C3)c(F)c2)nn1-c1cc2c(nn1)-c1ccccc1CCC2 (stereo not shown) [Compound 132, 1-(6,7-dihydro-5H-benzo[6,7]cyclohepta[1,2-c]pyridazin-3-yl)-N^3-(3-fluoro-(4-(3-pyrrolidin-1-yl)pyrrolidin-1-yl)phenyl)-1H-1,2,4-triazole-3,5-diamine]",< 1 µM
6,"CCN(CC)C1CCN(c2ccc(Nc3nc(N)n(-c4cc5c(nn4)-c4ccccc4CCC5)n3)cn2)C1 (stereo not shown) [Compound 133, 1-(6,7-dihydro-5H-benzo[6,7]cyclohepta[1,2-c]pyridazin-3-yl)-N^3-(6-(3-diethylaminopyrrolidin-1-yl)pyridin-3-yl)-1H-1,2,4-triazole-3,5-diamine]",< 1 µM
7,"CN1CC2CN(C3CCN(c4ccc(Nc5nc(N)n(-c6cc7c(nn6)-c6ccccc6CCC7)n5)cc4F)CC3)CC2C1 (stereo not shown) [Compound 134, 1-(6,7-dihydro-5H-benzo[6,7]cyclohepta[1,2-c]pyridazin-3-yl)-N^3-(3-fluoro-4-(4-(5-methyloctahydropyrrolo[3,4-c]pyrrolyl)piperidin-1-yl)phenyl)-1H-1,2,4-triazole-3,5-diamine]",< 1 µM
8,"CN1CCN(C2CCN(C/C=C/c3ccc(Nc4nc(N)n(-c5cc6c(nn5)-c5ccccc5CCC6)n4)cn3)CC2)CC1 [Compound 135, 1-(6,7-dihydro-5H-benzo[6,7]cyclohepta[1,2-c]pyridazin-3-yl)-N^3-(6-(3-(4-(N-methylpiperazin-4-yl)piperidin-1-yl)-(E)-propenyl)pyridin-3-yl)-1H-1,2,4-triazole-3,5-diamine]",< 1 µM
9,"Cc1cc(Nc2nc(N)n(-c3cc4c(nn3)-c3ccccc3CCC4)n2)cnc1N1CCC(N2CCCC2)CC1 [Compound 136, 1-(6,7-dihydro-5H-benzo[6,7]cyclohepta[1,2-c]pyridazin-3-yl)-N^3-(6-(4-(pyrrolidin-1-yl)piperidin-1-yl)-5-methylpyridin-3-yl)-1H-1,2,4-triazole-3,5-diamine]",< 1 µM
10,"Nc1nc(Nc2ccc(C3NCC4CNCC43)c(F)c2)nn1-c1cc2c(nn1)-c1ccccc1CCC2 (stereo not shown) [Compound 137, 1-(6,7-dihydro-5H-benzo[6,7]cyclohepta[1,2-c]pyridazin-3-yl)-N^3-(3-fluoro-4-(octahydropyrrolo[3,4-c]pyrrolyl)phenyl)-1H-1,2,4-triazole-3,5-diamine]",< 1 µM
11,"Nc1nc(Nc2ccc(/C=C/CN3CCCCC3)nc2)nn1-c1cc2c(nn1)-c1ccccc1CCC2 [Compound 138, 1-(6,7-dihydro-5H-benzo[6,7]cyclohepta[1,2-c]pyridazin-3-yl)-N^3-(6-(3-piperidin-1-yl-(E)-propenyl)pyridin-3-yl)-1H-1,2,4-triazole-3,5-diamine]",< 1 µM
12,"Nc1nc(Nc2cnc3c(c2)CN(C2CCCC2)CCC3)nn1-c1cc2c(nn1)-c1ccccc1CCC2 [Compound 139, 1-(6,7-dihydro-5H-benzo[6,7]cyclohepta[1,2-c]pyridazin-3-yl)-N^3-(6-cyclopentyl-6,7,8,9-tetrahydro-5H-pyrido[3,2-c]azepin-3-yl)-1H-1,2,4-triazole-3,5-diamine]",> 20 µM
13,"Nc1nc(Nc2ccc(N3CCCN(C4CC5CCC4C5)CC3)nc2)nn1-c1cc2c(nn1)-c1ccccc1CCC2 (stereo not shown) [Compound 140, 1-(6,7-dihydro-5H-benzo[6,7]cyclohepta[1,2-c]pyridazin-3-yl)-N^3-(6-(4-(bicyclo[2.2.1]heptan-2-yl)-1,4-diazepan-1-yl)pyridin-3-yl)-1H-1,2,4-triazole-3,5-diamine]",< 1 µM
14,"Nc1nc(Nc2ccc(/C=C/CN3CCC(N4CCCC4)CC3)nc2)nn1-c1cc2c(nn1)-c1ccccc1CCC2 [Compound 141, 1-(6,7-dihydro-5H-benzo[6,7]cyclohepta[1,2-c]pyridazin-3-yl)-N^3-(6-(3-(4-(pyrrolidin-1-yl)piperidin-1-yl)-(E)-propenyl)pyridin-3-yl)-1H-1,2,4-triazole-3,5-diamine]",1 to 10 µM
15,"Nc1nc(Nc2ccc(CCCN3CCCCC3)nc2)nn1-c1cc2c(nn1)-c1ccccc1CCC2 [Compound 142, 1-(6,7-dihydro-5H-benzo[6,7]cyclohepta[1,2-c]pyridazin-3-yl)-N^3-(6-(3-piperidin-1-yl)-propanylpyridin-3-yl)-1H-1,2,4-triazole-3,5-diamine]",< 1 µM
16,"Nc1nc(Nc2ccc(N3CCC(N4CCCC4)CC3)c(F)c2)nn1-c1cc2c(nn1)-c1ccc(Cl)cc1CCC2 [Compound 143, 1-(6,7-dihydro-9-chloro-5H-benzo[6,7]cyclohepta[1,2-c]pyridazin-3-yl)-N^3-(3-fluoro-4-(4-pyrrolidin-1-ylpiperidin-1-yl)phenyl)-1H-1,2,4-triazole-3,5-diamine]",< 1 µM
17,"CN1CCN(C2CCN(c3ccc(Nc4nc(N)n(-c5cc6c(nn5)-c5ccc(Cl)cc5CCC6)n4)cc3F)CC2)CC1 [Compound 144, 1-(6,7-dihydro-9-chloro-5H-benzo[6,7]cyclohepta[1,2-c]pyridazin-3-yl)-N^3-(3-fluoro-4-(4-(N-methylpiperazin-1-yl)piperidin-1-yl)phenyl)-1H-1,2,4-triazole-3,5-diamine]",1 to 10 µM
18,"Nc1nc(Nc2ccc(/C=C/CN3CCC(N4CCCCC4)CC3)nc2)nn1-c1cc2c(nn1)-c1ccccc1CCC2 [Compound 145, 1-(6,7-dihydro-5H-benzo[6,7]cyclohepta[1,2-c]pyridazin-3-yl)-N^3-(6-(3-(4-(piperidin-1-yl)piperidin-1-yl)-(E)-propenyl)pyridin-3-yl)-1H-1,2,4-triazole-3,5-diamine]",< 1 µM
19,"CN(C)C1CCN(C/C=C/c2ccc(Nc3nc(N)n(-c4cc5c(nn4)-c4ccccc4CCC5)n3)cn2)CC1 [Compound 146, 1-(6,7-dihydro-5H-benzo[6,7]cyclohepta[1,2-c]pyridazin-3-yl)-N^3-(6-(3-(4-dimethylaminopiperidin-1-yl)-(E)-propenyl)pyridin-3-yl)-1H-1,2,4-triazole-3,5-diamine]",< 1 µM
20,"Nc1nc(Nc2cnc(N3CCC(N4CCCC4)CC3)nc2)nn1-c1cc2c(nn1)-c1ccccc1CCC2 [Compound 147, 1-(6,7-dihydro-5H-benzo[6,7]cyclohepta[1,2-c]pyridazin-3-yl)-N^3-(2-(4-pyrrolidin-1-ylpiperidin-1-yl)pyrimidin-5-yl)-1H-1,2,4-triazole-3,5-diamine]",< 1 µM
21,"Nc1nc(Nc2cnc(N3CCC(CN4CCCCC4)CC3)nc2)nn1-c1cc2c(nn1)-c1ccccc1CCC2 [Compound 148, 1-(6,7-dihydro-5H-benzo[6,7]cyclohepta[1,2-c]pyridazin-3-yl)-N^3-(2-(4-(piperidin-1-ylmethyl)piperidin-1-yl)pyrimidin-5-yl)-1H-1,2,4-triazole-3,5-diamine]",1 to 10 µM
22,"Nc1nc(Nc2ccc(C(=O)N3CCC(N4CCCCC4)CC3)nc2)nn1-c1cc2c(nn1)-c1ccccc1CCC2 [Compound 149, 1-(6,7-dihydro-5H-benzo[6,7]cyclohepta[1,2-c]pyridazin-3-yl)-N^3-(6-((4-piperidin-1-ylpiperidin-1-yl)carbonyl)pyridin-3-yl)-1H-1,2,4-triazole-3,5-diamine]",1 to 10 µM
